This is an account of results in publication PMC10949812, “Unveiling CXCR2 as a promising therapeutic target in renal cell carcinoma: exploring the immunotherapeutic paradigm shift through its inhibition by RCT001” (Journal of Experimental & Clinical Cancer Research : CR, 2024).

Experiment [1] concerns the target T1, CXCR2 (Homo sapiens, UniProt P25025).
T1 construct: recombinant CXCR2 reconstituted in detergent buffer containing lipids
T1 sequence (P25025 1-360): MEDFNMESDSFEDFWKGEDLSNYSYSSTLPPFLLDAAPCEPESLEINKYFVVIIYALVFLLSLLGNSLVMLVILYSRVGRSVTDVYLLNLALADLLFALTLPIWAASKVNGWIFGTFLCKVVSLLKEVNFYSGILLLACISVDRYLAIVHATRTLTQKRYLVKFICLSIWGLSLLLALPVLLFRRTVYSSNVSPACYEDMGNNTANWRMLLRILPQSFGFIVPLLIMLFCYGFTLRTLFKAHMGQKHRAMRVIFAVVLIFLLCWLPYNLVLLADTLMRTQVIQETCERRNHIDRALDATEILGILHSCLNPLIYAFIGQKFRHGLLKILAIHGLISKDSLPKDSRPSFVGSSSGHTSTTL
In words: fluorescent conformational probe (λmax shift) on recombinant reconstituted CXCR2, dose response and kinetics. The class given is binding.

Experiment [2] deals with T1, CXCR2. In words: fluorescent conformational probe (λmax shift) kinetics on recombinant CXCR2, SX-682 […] after CXCL8 […]. Type of experiment: biochemical.

The structures appear in SMILES notation.

Consider `O=C(Nc1cc(Cl)cc(Cl)c1)Nc1nc2ccc([N+](=O)[O-])cc2s1` [RCT001, 1-(3,5-dichlorophenyl)-3-(6-nitrobenzo[d]thiazol-2-yl) urea], for which, on CXCR2 [1], the EC50 – broadly, the concentration that produces a half-maximal response – turned out to be 42.7 nM.

Consider `O=C(Nc1ccc(F)cc1)c1cnc(SCc2cc(OC(F)(F)F)ccc2B(O)O)nc1` [SX-682], for which the “fluorescent conformational probe (λmax shift) kinetics on recombinant CXCR2, SX-” value on CXCR2 [2] is “Unlike RCT001, SX-682 inhibited CXCL8-induced pocket opening of CXCR2 (Fig. S3c), firmly establishing it as a standard CXCR2 antagonist”.
